According to publication PMC6536413, “Application of ultrasound‐guided cholecystocentesis to the evaluation of the metabolite profiling in bile of dogs and cynomolgus monkeys” (Pharmacology Research & Perspectives, 2019):
Marks after values point to notes of the source that are not given here.

How the values were obtained:
[1] = Plasma pharmacokinetics of ATV and metabolites in BDC and UCC dogs (LC-MS/MS); type: in vivo; settings: male, beagle, dog, po, 40 mg/kg, 40 mg/kg oral dose of ATV, ± standard deviation; for AUC: read-out: AUC0‐24h
Protocol: (§1) Plasma samples were collected at 0.5, 1, 2, 4, 6, and 24 hours postdose via cephalic vein or indwelling cephalic catheter. At the 6‐ and 24‐hours postdose time points, dogs were sedated with propofol at 6 mg/kg through an indwelling cephalic catheter. The dogs were then positioned in a dorsal‐recumbency with head elevated. Heart rate, rhythm, and arterial oxygen saturation were monitored throughout the procedure. After shaving and aseptically preparing the abdominal skin immediately caudal to the xiphoid process, an ultrasound exam of the gallbladder and cranial abdomen was done using a Mylab30cv ultrasound system with 9‐3 MHz micro‐convex transducer (Esoate, Indianapolis, IN). A 21‐gauge, 1.5‐inch needle, attached to a 5‐mL syringe, was inserted percutaneously through the abdominal wall into the gallbladder lumen. Effort was made to completely empty the gallbladder by aspiration (typically, 2‐5 mL bile was obtained). The needle and syringe were withdrawn and the bile samples were immediately saved on dry ice for later analysis. Dogs were allowed to recover in their home cages. Both plasma and bile samples were stored at −20°C until analysis.
(§2) Plasma samples were collected from dogs and monkeys at 0.5, 1, 2, 4, 6, and 24 hours postdose. Bile samples were collected at 0‐2 hours, 2‐4 hours, 4‐6 hours, 6‐8 hours, and 8‐24 hours intervals. Both plasma and bile samples were stored at −20°C until analysis.
(§3) Standard curves and quality control (QC) samples defining the dynamic range of the bioanalytical method were prepared in commercially available control plasma and processed in the same fashion as the test samples. When dilutions were required, an aliquot of the sample was diluted into control plasma. […] The supernatant was then separated from the precipitated proteins after a 10‐minute centrifugation at 3500 rpm (2109× g) at 10°C and transferred to an autosampler 96‐well plate. An aliquot (10 µL) was injected onto the ultrahigh performance liquid chromatography (UHPLC) column for LC‐MS/MS‐based analysis. Samples from individual animals were not pooled prior to quantitative analysis.
(§4) The UHPLC system Nexera (Shimadzu, Japan) consisted of two pumps (LC30AD), a column heater (CTO‐30A), and an autosampler (SIL‐30AC) equipped with a cooling compartment that maintained samples at 15°C during analysis. The analytical column used was a BEH C18 2.1 mm × 50 mm, 1.7 µm (Waters Corporation, Milford, MA) at 50°C. The mobile phase, which consisted of 0.1% formic acid in water (A) and acetonitrile (B), was delivered at a flow rate of 0.6 mL/min. The initial conditions were 100% aqueous followed by 1‐minute gradient to 100% acetonitrile then hold for 0.4 minutes and back to initial conditions.
(§5) The UHPLC was interfaced to a Finnigan TSQ Quantum Ultra LC‐MS/MS tandem mass spectrometer (Thermo Electron Corporation) equipped with heated electrospray ionization (HESI‐II) interface operating in the positive ionization mode. Ultrahigh‐purity nitrogen was used as the sheath and auxiliary gases at flow rates of 55 L/h for sheath and 25 L/h for auxiliary. The desolvation temperature was 300°C and the source temperature was 350°C. The detection of each analyte was achieved through selected reaction monitoring. […]
(§6) The peak concentration (Cmax) and time for Cmax (Tmax) were recorded directly from experimental observations. The area under the curve from time 0 to 24 hours (AUC0‐24h) was calculated using a combination of linear and log trapezoidal summations.

[2] = Concentration of ATV and metabolites in dog bile obtained by BDC and UCC (LC-MS/MS); type: in vivo, beagle dogs; settings: for Concentration in bile: BDC dogs, 40 mg/kg ATV orally, ± standard deviation; for concentration at 6 h / concentration at 24 h: male, beagle, dog, bile, po, 40 mg/kg
Protocol: as §1, §2, §3, §4, §5

[3] = Plasma pharmacokinetics of ATV and metabolites in BDC and UCC monkeys (LC-MS/MS); type: in vivo, cynomolgus macaques; settings: for Cmax / Tmax / AUC: male, cynomolgus, cynomolgus monkey, plasma, po, 30 mg/kg, 30 mg/kg oral dose of ATV, ± standard deviation; for AUC: read-out: AUC0‐24h; for plasma concentration: both the UCC and BDC monkey plasma samples, 30 mg/kg ATV orally
Protocol: (§7) Plasma and bile samples were collected. For bile collection monkeys were sedated with ketamine (8 mg/kg) and dexmedetomidine (0.05 mg/kg) intramuscularly. At the conclusion of the procedure, sedation was reversed with atipamezole (0.15 mg/kg) intramuscularly. All other procedures were the same as for the dog.
as §2, §3, §4, §5, §6

[4] = Concentration of ATV and metabolites in monkey bile obtained by BDC and UCC (LC-MS/MS); type: in vivo, cynomolgus macaques; settings: for Concentration in bile: BDC monkeys, 30 mg/kg ATV orally; for concentration at 24 h: male, cynomolgus, cynomolgus monkey, bile, po, 30 mg/kg
Protocol: as §7, §2, §3, §4, §5

[5] = Metabolite profile of ATV in dog bile (LC-MS, UV 254 nm); type: in vivo, beagle dogs; settings: based on the UV chromatograms
Protocol: Dog bile samples obtained by cholecystocentesis were pooled across animals (n = 3). Samples were mixed with an equal volume of citrate buffer (100 mmol/L) to make the final buffer concentration of 50 mmol/L. The mixture was mixed by vortexing for 1 minute and then centrifuged at 12 000× g for 15 minutes. An aliquot (5‐10 μL) of the supernatant was injected onto the UHPLC column for LC‐MS/MS‐based analysis.
The metabolite profile was obtained using LTQ‐Orbitrap coupled with Accela UHPLC and PDA (ThermoScientific, San Jose, CA) and a CTC PAL autosampler equipped with a cooling stack that maintained samples at 4°C during analysis. A 20‐minute UHPLC method was developed. The column was Acquity UPLC HSS T3 (Waters, Milford, MA) 2.1 × 150 mm, 1.8 µm. The column was maintained at a temperature of 55°C. The mobile phase consisted of 0.1% formic acid in water (solvent A) and 0.1% formic acid in acetonitrile (solvent B) at a flowrate of 600 µL/min with the following linear gradient conditions: 5% A for 0.5 minutes, 20‐60% B over 14 minutes, 95% B over 3 minutes, and 5% B isocratic for 2 minutes. Instrument settings were as follows: m/z range: 100 to 1000, capillary temperature was set at 280°C, nitrogen sheath gas flow rate 80 (arbitrary units), auxiliary gas 20, spray voltage 4.0 kV, and tube lens offset 80 V. In addition, UV wavelength was monitored at 254 nm.

[6] = Metabolite profile of ATV in monkey bile (LC-MS, UV 254 nm); type: in vivo, cynomolgus macaques; settings: UV chromatograms
[7] = Concentration of ATV and metabolites in monkey bile obtained by BDC and UCC (LC-MS/MS); type: in vivo, cynomolgus macaques; settings: UCC monkeys, 4‐5 h, 30 mg/kg ATV orally, ± standard deviation
[8] = 0‐2 h, n = 2 due to blocked/displaced cannulas
[9] = 6‐8 h, n = 2 due to blocked/displaced cannulas

Cmax ([1]; BDC dogs (n = 3)) [µM]	Tmax ([1]; BDC dogs (n = 3)) [h]	AUC ([1]; BDC dogs (n = 3)) [µM·h]	Cmax ([1]; UCC dogs (n = 3)) [µM]	Tmax ([1]; UCC dogs (n = 3)) [h]	AUC ([1]; UCC dogs (n = 3)) [µM·h]	Concentration in bile ([2]; 0‐2 h) [µM]	Concentration in bile ([2]; 2‐4 h) [µM]	Concentration in bile ([2]; 4‐6 h) [µM]	Concentration in bile ([2]; 6‐8 h) [µM]	Concentration in bile ([2]; 8‐24 h) [µM]	concentration at 6 h [2] [µM]	concentration at 24 h [2] [µM]	Concentration in bile [4, 8] [µmol/L]	Concentration in bile ([4]; 2‐4 h, ± standard deviation) [µmol/L]	Concentration in bile ([4]; 4‐6 h, ± standard deviation) [µmol/L]	Concentration in bile [4, 9] [µmol/L]	Concentration in bile ([4]; 8‐24 h, ± standard deviation)	concentration at 24 h [4] [µM]	Concentration in bile [7] [µM]	SMILES	other results
0.352 ± 0.28	2	0.667 ± 0.203	0.215 ± 0.095	1.7 ± 0.6	0.736 ± 0.066	256 ± 284	690 ± 296	337 ± 266	168 ± 134	27 ± 19	151 ± 53	63 ± 65	112	317 ± 66	412 ± 302	306	303 ± 151 µmol/L	586 ± 127	334 ± 70	CC(C)c1c(C(=O)Nc2ccccc2O)c(-c2ccccc2)c(-c2ccc(F)cc2)n1CC[C@@H](O)C[C@@H](O)CC(=O)O [2‐OH ATV, 2‐hydroxyatorvastatin]	Cmax ([3]; BDC monkeys (n = 4)): 0.055 ± 0.02 µM; Tmax ([3]; BDC monkeys (n = 4)): 9 ± 10.1 h; Cmax ([3]; UCC monkeys (n = 3)): 0.031 ± 0.018 µM; Tmax ([3]; UCC monkeys (n = 3)): 2 ± 1.7 h; AUC ([3]; BDC monkeys (n = 4)): 0.664 ± 0.347 µM·h; AUC ([3]; UCC monkeys (n = 3)): 0.057 ± 0.008 µM·h; abundance of metabolite in bile [5]: major oxidative metabolites; abundance of metabolite in bile [6]: major oxidative metabolites
													36	93 ± 57	67 ± 35	52	18 ± 19 µmol/L	147 ± 44	73 ± 19	CC(C)c1c(C(=O)Nc2ccccc2O)c(-c2ccccc2)c(-c2ccc(F)cc2)n1CC[C@@H]1C[C@@H](O)CC(=O)O1 [2‐OH ATV‐L, 2‐hydroxyatorvastatin lactone]	Cmax ([3]; BDC monkeys (n = 4)): 0.024 ± 0.006 µM; Tmax ([3]; BDC monkeys (n = 4)): 4 ± 1.6 h; Cmax ([3]; UCC monkeys (n = 3)): 0.039 ± 0.029 µM; Tmax ([3]; UCC monkeys (n = 3)): 1.3 ± 0.6 h; AUC ([3]; BDC monkeys (n = 4)): 0.116 ± 0.045 µM·h; AUC ([3]; UCC monkeys (n = 3)): 0.035 ± 0.007 µM·h
0.138 ± 0.12	2.7 ± 1.2	0.293 ± 0.038	0.082 ± 0.03	3.3 ± 1.2	0.381 ± 0.128	501 ± 522	1342 ± 583	862 ± 472	558 ± 356	184 ± 97	279 ± 60	262 ± 317	56	180 ± 68	207 ± 116	140	181 ± 29 µmol/L	594 ± 39	271 ± 185	CC(C)c1c(C(=O)Nc2ccc(O)cc2)c(-c2ccccc2)c(-c2ccc(F)cc2)n1CC[C@@H](O)C[C@@H](O)CC(=O)O [4‐OH ATV, 4‐hydroxyatorvastatin]	plasma concentration [3]: below the limits of quantitation; abundance of metabolite in bile [5]: major oxidative metabolites; abundance of metabolite in bile [6]: major oxidative metabolites
													2	6 ± 3	4 ± 2	3	2 ^b μmol/L	19 ± 3	9 ± 5	CC(C)c1c(C(=O)Nc2ccc(O)cc2)c(-c2ccccc2)c(-c2ccc(F)cc2)n1CC[C@@H]1C[C@@H](O)CC(=O)O1 [4‐OH ATV‐L, 4‐hydroxyatorvastatin lactone]	plasma concentration [3]: below the limits of quantitation
